Source: patent US20260070924A1, “INDAZOLE MACROCYCLES AND THEIR USE” (BLOSSOMHILL THERAPEUTICS, INC., priority 2022, published 2026)

Tests used:
Experiment in all cases: Cell proliferation panel (CellTiter-Glo 2.0, 5 days)
Type in all cases: cell-based
HPAC = conditions: Pancreatic carcinoma
Procedure: (§1) Cell proliferation assay was carried out in a panel of 108 cell lines. 1000 (attached cells) or 3000 (suspension cells) cells/100 μl per well were seeded in 96 well black plate with a clear bottom (Corning #3904). Compounds were added using Tecan D300e Digital Dispenser in 1:3 titration for 9 doses. Plates were incubated for 5 days at 37° C. and 5% CO2. Cell proliferation was measured using CellTiter-Glo 2.0 luciferase-based ATP detection assay (Promega, Madison, WI) at 50 μl per well following the manufacturer's protocol. Plates were then read on a TECAN Sparks multimode microplate reader. Data was analyzed using GraphPad Prism 9 (GraphPad Software, San Diego, CA) to obtain IC50 values. IC50 values were determined using Prism software (GraphPad Software, San Diego, CA).

H69 = conditions: Lung small cell carcinoma
Procedure: as §1

H2122 = conditions: Lung adenocarcinoma NSCLC
Procedure: as §1

DLD1 = conditions: Colorectal adenocarcinoma
Procedure: as §1

DU4475 = conditions: Breast carcinoma
Procedure: as §1

H441 = conditions: Lung adenocarcinoma NSCLC
Procedure: as §1

H446 = conditions: Small cell lung carcinoma
Procedure: as §1

MCF7 = conditions: Breast adenocarcinoma
Procedure: as §1

N87 = conditions: Gastric carcinoma
Procedure: as §1

KASUMI-3 = conditions: Acute myeloblastic leukemia
Procedure: as §1

HCC827 = conditions: Lung adenocarcinoma NSCLC
Procedure: as §1

SUIT-2 = conditions: Pancreatic tubular adenocarcinoma
Procedure: as §1

KASUMI-1 = conditions: Acute myeloblastic leukemia
Procedure: as §1

SK-BR-3 = conditions: Breast adenocarcinoma
Procedure: as §1

THP-1 = conditions: Acute monocytic leukemia
Procedure: as §1

CHP-212 = conditions: Neuroblastoma
Procedure: as §1

MOLM-1 = conditions: Chronic myeloid leukemia
Procedure: as §1

HGC-27 = conditions: Gastric carcinoma
Procedure: as §1

Kelly = conditions: Neuroblastoma
Procedure: as §1

H2444 = conditions: Lung adenocarcinoma NSCLC
Procedure: as §1

H1688 = conditions: Small cell lung carcinoma
Procedure: as §1

BT-474 = conditions: Mammary gland ductal carcinoma
Procedure: as §1

HCC78 = conditions: Non-small cell lung carcinoma
Procedure: as §1

KCL22R = conditions: Chronic Myelogenous Leukemia
Procedure: as §1

UCSD-AML1 = conditions: Acute myeloid leukemia
Procedure: as §1

LS180 = conditions: Colorectal adenocarcinoma
Procedure: as §1

COLO320 = conditions: Colorectal adenocarcinoma
Procedure: as §1

SW620 = conditions: Colorectal adenocarcinoma
Procedure: as §1

HCC38 = conditions: Mammary gland ductal carcinoma
Procedure: as §1

KP-N-RT-BM-1 = conditions: Neuroblastoma
Procedure: as §1

U138-MG = conditions: Brain glioblastaoma
Procedure: as §1

Ovcar3 = conditions: Ovarian adenocarcinoma
Procedure: as §1

PANC1 = conditions: Pancreatic ductal epithelioid carcinoma
Procedure: as §1

PA-1 = conditions: Ovary Teratocarcinoma
Procedure: as §1

JPC3 = conditions: Lung carcinoma
Procedure: as §1

GP2D = conditions: Colon adenocarcinoma
Procedure: as §1

769-P = conditions: Renal cell adenocarcinoma
Procedure: as §1

KCL22S = conditions: Chronic myeloid leukemia at blast crisis
Procedure: as §1

PC-9 = conditions: Lung adenocarcinoma NSCLC
Procedure: as §1

MOLM14 = conditions: Acute myeloid leukemia
Procedure: as §1

ASPC1 = conditions: Pancreatic adenocarcinoma
Procedure: as §1

SKNO-1 = conditions: Acute myeloid leukemia
Procedure: as §1

786-O = conditions: Renal cell adenocarcinoma
Procedure: as §1

SW480 = conditions: Colorectal adenocarcinoma
Procedure: as §1

H23 = conditions: Lung adenocarcinoma NSCLC
Procedure: as §1

Caki-2 = conditions: Kidney clear cell carcinoma
Procedure: as §1

H211 = conditions: Small cell lung carcinoma
Procedure: as §1

CCc1nn(C)c2c1/C=C/c1n[nH]c3ccc(cc13)-c1cnn(C)c1OCCN(C)C2=O [Ex. 6, (17E)-16-ethyl-8,12,14-trimethyl-2,11,12,14-tetrahydro-8H-3,5-ethenotripyrazolo[3,4-f:3′,4′-j:4″,3″-n][1,4]oxazacyclopentadecin-13(10H)-one]
IC50 (HPAC): 79.1 nM
IC50 (H69): 100 nM
IC50 (H2122): 73.7 nM
IC50 (DLD1): 48.7 nM
IC50 (DU4475): 61.4 nM
IC50 (H441): 91.1 nM
IC50 (H446): 112 nM
IC50 (MCF7): 75.9 nM
IC50 (N87): 20.8 nM
IC50 (KASUMI-3): 43.3 nM
IC50 (HCC827): 70.9 nM
IC50 (SUIT-2): 393 nM
IC50 (KASUMI-1): 14 nM
IC50 (SK-BR-3): 38.8 nM
IC50 (THP-1): 107 nM
IC50 (CHP-212): 27.4 nM
IC50 (MOLM-1): 80.5 nM
IC50 (HGC-27): 100 nM
IC50 (Kelly): 51.5 nM
IC50 (H2444): 117 nM
IC50 (H1688): 116 nM
IC50 (BT-474): 278 nM
IC50 (HCC78): 42.7 nM
IC50 (KCL22R): 64.8 nM
IC50 (UCSD-AML1): 15.5 nM
IC50 (LS180): 82.7 nM
IC50 (COLO320): 85.2 nM
IC50 (SW620): 76.5 nM
IC50 (HCC38): 161 nM
IC50 (KP-N-RT-BM-1): 15.1 nM
IC50 (U138-MG): 170 nM
IC50 (Ovcar3): 70.7 nM
IC50 (PANC1): 213 nM
IC50 (PA-1): 48 nM
IC50 (JPC3): 171 nM
IC50 (GP2D): 121 nM
IC50 (769-P): 91.6 nM
IC50 (KCL22S): 61.2 nM
IC50 (PC-9): 164 nM
IC50 (MOLM14): 2.26 nM
IC50 (ASPC1): 241 nM
IC50 (SKNO-1): 23.3 nM
IC50 (786-O): 138 nM
IC50 (SW480): 90.5 nM
IC50 (H23): 88.8 nM
IC50 (Caki-2): 142 nM
IC50 (H211): 105 nM
